From paper PMC11209693 (ACS Omega, 2024) come the findings set out here.

Experiment [1] addresses T1, pancreatic lipase (Homo sapiens, UniProt P16233).
T1 sequence (P16233 17-465): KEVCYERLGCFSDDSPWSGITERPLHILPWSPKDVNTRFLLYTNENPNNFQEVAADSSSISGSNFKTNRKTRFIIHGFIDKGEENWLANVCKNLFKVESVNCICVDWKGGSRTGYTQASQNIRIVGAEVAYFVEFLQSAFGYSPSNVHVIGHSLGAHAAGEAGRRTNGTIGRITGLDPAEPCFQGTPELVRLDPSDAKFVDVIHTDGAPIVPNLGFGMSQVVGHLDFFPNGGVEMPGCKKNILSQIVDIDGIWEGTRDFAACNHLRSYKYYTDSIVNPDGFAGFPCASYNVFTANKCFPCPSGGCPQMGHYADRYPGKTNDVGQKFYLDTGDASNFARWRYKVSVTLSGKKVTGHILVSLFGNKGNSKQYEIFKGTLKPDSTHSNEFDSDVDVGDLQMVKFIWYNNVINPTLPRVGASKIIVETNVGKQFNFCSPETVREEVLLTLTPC
The experiment can be described thus: microscale thermophoresis. The class given is binding. (In general: In MST a laser heats a spot of the sample, and binding alters the fluorescence response.)

Experiment [2] concerns the target T2, pancreatic lipase (Sus scrofa, UniProt P00591).
T2 sequence (P00591 1-450): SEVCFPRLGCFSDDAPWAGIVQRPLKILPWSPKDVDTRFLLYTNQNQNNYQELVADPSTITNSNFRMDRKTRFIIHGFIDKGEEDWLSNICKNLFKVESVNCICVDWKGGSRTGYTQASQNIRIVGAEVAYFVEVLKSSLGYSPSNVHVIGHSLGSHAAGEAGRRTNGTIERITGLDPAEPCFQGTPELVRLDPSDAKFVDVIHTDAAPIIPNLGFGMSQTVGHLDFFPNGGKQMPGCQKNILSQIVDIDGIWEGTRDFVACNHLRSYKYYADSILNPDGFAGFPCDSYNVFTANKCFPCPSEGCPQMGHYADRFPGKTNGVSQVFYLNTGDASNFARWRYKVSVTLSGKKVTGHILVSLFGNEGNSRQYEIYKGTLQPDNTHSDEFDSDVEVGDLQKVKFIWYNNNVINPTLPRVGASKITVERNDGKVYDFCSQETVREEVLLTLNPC
The experiment is described as follows: in vitro pancreatic lipase inhibition assay. The experiment is classed as biochemical.

Each structure is given as a SMILES string.

As usually defined, the Kd is a measure of binding affinity in units of concentration. Low readings indicate a tighter complex, high ones a looser complex. Turning to `COc1cc(/C=C/C(=O)CC(=O)/C=C/c2ccc(O)c(OC)c2)ccc1O` [A6, curcumin, reference compound], the Kd at pancreatic lipase [1] came to 23.5 µM.
The IC50 is the concentration needed to halve the response being measured. A high value points to weaker potency. In the case of `O=C(CCc1ccc(O)cc1)CC(=O)CCc1ccc(O)cc1` [C4, 1,7-bis(4-hydroxyphenyl)heptane-3,5-dione], on pancreatic lipase [2], the IC50 amounted to 42.8 µM. Moreover, the Kd on pancreatic lipase [1] worked out at 2.91 µM.
In the same order, the values of `COc1cc(CCC(=O)CC(=O)CCc2ccc(O)c(OC)c2)ccc1O` [C6, 1,7-bis(4-hydroxy-3-methoxyphenyl)heptane-3,5-dione] are 98.6 µM and 18.2 µM.
